In US20170071879A1, “PROTOTYPICAL ANALGESIC PROFILE OF 3,3-DIPHENYL-N-(1-PHENYLETHYL)PROPAN-1-AMINE (FENDILINE)” (priority 2015, published 2017):
Where two headings read alike, the source gives them in different places.

Experiments:
[1] = test system: Paclitaxel induced neuropathic sensitization (PINS); test: Paclitaxel induced neuropathic sensitization (PINS) in the formalin test of pain; format: in vivo; details: mice; for suppression of PINS: 35-40 mn central sensitization phase, formalin induced pain
Method: Fendiline at 1 or 5 mg/kg, per os (po) suppressed the PINS by 75% or 63%, respectively, in the 35-40 mn central sensitization phase, in the formalin induced pain, in mice (Compound A1).
When fendiline was administered at 25 or 75 mg/kg (po) per os (po), PINS diminished by 181% or 275%, respectively in mice (Compound A2), i.e., less pain reaction than the control which hadn't receive Paclitaxel.

[2] = test system: Pentylenetetrazole (PTZ) convulsions; test: Pentylenetetrazole (PTZ) convulsions; format: in vivo; details: mice
brain dopamine turnover [3] = details: mice; cited from earlier work
brain dopamine turnover [4] = test: brain dopamine turnover, mice; format: in vivo; details: 5-50 mg/kg ip
Source text: (§1) It could be co-administered with the μ-ORAs amplifying their analgesic activity and, more importantly, protecting against the opioid dependence of the μ-ORAs.

brain dopamine turnover [5] = details: rats; cited from earlier work
brain dopamine turnover [6] = test: brain dopamine turnover, rats; format: in vivo; details: 5-50 mg/kg ip
Source text: as §1

sigma-1 = sigma-1 (Homo sapiens, UniProt Q99720); test: sigma-1 affinity; format: binding
sigma-2 receptors = sigma-2 receptors (Homo sapiens, UniProt Q5BJF2); test: sigma-2 receptor affinity; format: binding
[7] = test system: Maximal Electrochoc Seizures (MES); test: Maximal Electrochoc Seizures (MES); format: in vivo; details: mice

sigma-1, sequence (Q99720 whole entry): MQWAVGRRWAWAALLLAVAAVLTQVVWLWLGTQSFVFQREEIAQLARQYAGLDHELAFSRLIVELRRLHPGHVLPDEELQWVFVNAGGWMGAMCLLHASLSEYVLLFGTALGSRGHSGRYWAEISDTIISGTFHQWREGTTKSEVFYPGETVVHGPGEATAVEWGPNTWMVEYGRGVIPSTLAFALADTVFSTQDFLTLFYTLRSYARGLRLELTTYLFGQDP
sigma-2 receptors, sequence (Q5BJF2 whole entry): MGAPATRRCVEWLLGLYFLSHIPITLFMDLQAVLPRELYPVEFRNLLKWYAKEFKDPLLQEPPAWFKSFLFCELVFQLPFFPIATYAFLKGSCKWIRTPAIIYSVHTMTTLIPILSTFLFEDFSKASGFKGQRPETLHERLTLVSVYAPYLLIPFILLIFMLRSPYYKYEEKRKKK

**Q.** Which “suppression of PINS” value ([1]; 1 mg/kg po) does the source give for CC(NCCC(c1ccccc1)c1ccccc1)c1ccccc1 (stereo not drawn) [Fendiline, 3,3-diphenyl-N-(1-phenylethyl) propan-1-amine] here?
**A.** Its value is 75%.

**Q.** What about the “suppression of PINS” value ([1]; 5 mg/kg po) of the same compound?
**A.** Its value is 63%.

**Q.** And the PINS diminished ([1]; 25 mg/kg po)?
**A.** Its PINS diminished is 181%.

**Q.** And the PINS diminished ([1]; 75 mg/kg po)?
**A.** The PINS diminished was 275%.

**Q.** What about the “anticonvulsive activity in PTZ convulsions” value [2] of the same compound?
**A.** The value was “absence of anticonvulsive activities”.

**Q.** And the brain dopamine turnover (brain dopamine turnover [3])?
**A.** Its brain dopamine turnover is “decrease of the brain dopamine turnover”.

**Q.** What about the “brain DA turnover” value (brain dopamine turnover [4]) of the same compound?
**A.** The value was “decrease of the DA turnover”.

**Q.** What about the brain dopamine turnover (brain dopamine turnover [5]) of the same compound?
**A.** Its brain dopamine turnover is “decrease of the brain dopamine turnover”.

**Q.** And the “brain DA turnover” value (brain dopamine turnover [6])?
**A.** The value was “decrease of the DA turnover”.

**Q.** And the Ki (sigma-1)?
**A.** The Ki was 14 to 18 nM.

**Q.** What about the Ki (sigma-2 receptors) of the same compound?
**A.** The Ki was 730 to 850 nM.

**Q.** And the “anticonvulsive activity in MES” value [7]?
**A.** Its value is “absence of anticonvulsive activities”.
